Data set [1] addresses T1, zebrafish Mate4 (Danio rerio, UniProt U3Q0C3). Kind of data set: DAPI inhibition assay, Mate4. The data set is classed as cell-based. As for the experimental part: (§1) HEK293T cells were transiently transfected as described previously[31] using the PEI (polyethyleneimine) reagent in 48-well plates. Cells were in parallel transfected with pcDNA3.1/His/LacZ plasmid and transfection efficiency was evaluated 24 h after transfection with the LacZ staining protocol.
(§2) HEK293T cells overexpressing respective single zebrafish Mate transporter were used for further experiments. […] DAPI fluorescence was measured at 360 and 460 nm […], respectively. The uptake into vector-transfected HEK293T cells (mock cells) was subtracted to obtain transporter-specific uptake.
(§3) Inhibition assays using DAPI as a fluorescent substrate were performed in the same transport medium. […] Compounds tested for interaction were checked using at least four concentrations but only a representative concentration (with the highest response or the largest concentration in solubility range) is shown.
(§4) For the purpose of IC50 calculations, data were fitted to the sigmoidal four-parameter dose-response model (variable slope),

Data set [2] concerns the target T2, zebrafish Mate6 (Danio rerio, UniProt A1L2E7). Put plainly: DAPI inhibition assay, Mate6. The data set is classed as cell-based. The procedure:
as §1, §2, §3, §4

Data set [3] concerns the target T3, zebrafish Mate7 (Danio rerio, UniProt U3PTD6). Kind of data set: DAPI inhibition assay, Mate7. The data set is classed as cell-based. The settings on record: for interaction strength: class by IC50 of DAPI uptake inhibition. As for the experimental part:
as §1, §2, §3, §4

In data set [4] the target is T4, zebrafish Mate8 (Danio rerio, UniProt A0A8M6YZ09). Put plainly: DAPI inhibition assay, Mate8. Format: cell-based. The following applies: for interaction strength: class by IC50 of DAPI uptake inhibition. As for the experimental part:
as §1, §2, §3, §4

In a further data set the test system is human MATE1. The settings on record: cited from earlier work.
In another data set the test system is human MATE2. The following applies: human MATE2 ref 40; cited from earlier work.
The target of data set [5] is T5, zebrafish Mate3 (Danio rerio, UniProt A1L1P9).
T5 sequence (A1L1P9 1-590): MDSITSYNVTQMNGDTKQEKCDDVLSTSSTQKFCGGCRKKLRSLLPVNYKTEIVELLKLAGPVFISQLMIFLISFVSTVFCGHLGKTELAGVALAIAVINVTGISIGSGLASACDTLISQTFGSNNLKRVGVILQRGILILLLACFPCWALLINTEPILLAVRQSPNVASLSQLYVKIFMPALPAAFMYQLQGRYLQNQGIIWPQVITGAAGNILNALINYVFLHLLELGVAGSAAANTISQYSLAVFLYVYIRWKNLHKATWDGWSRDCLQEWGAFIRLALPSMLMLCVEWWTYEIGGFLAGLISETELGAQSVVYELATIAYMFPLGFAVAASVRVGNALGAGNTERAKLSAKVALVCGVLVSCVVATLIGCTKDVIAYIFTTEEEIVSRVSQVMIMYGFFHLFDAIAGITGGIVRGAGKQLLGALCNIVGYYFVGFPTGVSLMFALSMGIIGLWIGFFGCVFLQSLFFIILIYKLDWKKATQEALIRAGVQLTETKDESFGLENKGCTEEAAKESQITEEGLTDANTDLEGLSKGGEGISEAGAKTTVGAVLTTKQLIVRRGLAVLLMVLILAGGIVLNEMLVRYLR
Put plainly: Uptake of fluorescent dyes by HEK293T cells overexpressing zebrafish Mate3. The following applies: dye uptake, mean ± SD; for Km: triplicate, representative experiment. The procedure: as §1
(§5) HEK293T cells overexpressing respective single zebrafish Mate transporter were used for further experiments. Cell uptake of all substrates except DAPI was measured in sodium based transport medium (145 mM NaCl, 3 mM KCl, 1 mM CaCl2, 0.5 mM MgCl2, 5 mM glucose and 10 mM Tris, pH 8.4). Briefly, after 5 minute incubation period, the cells were rapidly washed two times with ice-cold phosphate-buffered saline (PBS), lysed in 250 μL of 0.1% sodium dodecyl sulphate for 30 min and transferred to the black 96-well plates where fluorescence was measured using the microplate reader (Infinite M200, Tecan, Salzburg, Austria) at following excitation and emission wavelengths: ASP^+, 450/590 nm; EtBr, 535/590 nm; Rh123, 485/530 nm; berberine, 355/540 nm; amiloride, 366/418 nm. […] DAPI fluorescence was measured at 360 and 460 nm […], respectively. The uptake into vector-transfected HEK293T cells (mock cells) was subtracted to obtain transporter-specific uptake.
(§6) Calibration curves for all substrates were generated in 0.1% SDS and in the cell matrix dissolved in 0.1% SDS. […] Using the calibration curves, uptake was expressed as pmol of substrate per mg of protein per minute. Total cell protein content was determined according to the Bradford method.
All assays were performed in 3–5 independent experiments run in triplicates. Data shown on related figures represent mean ± standard errors (SE) or standard deviations (SD). All calculations were performed using GraphPad Prism 5.00 for Windows (GraphPad Software, San Diego, California, USA) as described below. The kinetic parameters, Km and Vmax values were calculated using the Michaelis-Menten equation,
where V is velocity (picomoles of substrate per milligram of proteins per minute), Vmax is maximal velocity, [S] is substrate concentration and Km is the Michaelis Menten constant. The uptake into vector-transfected HEK293 cells was subtracted to obtain transporter-specific uptake.

The subject of a further data set is rat Mate1. The settings on record: rat Mate1 ref 3; cited from earlier work.
The target in data set [6] is T5, zebrafish Mate3. Put plainly: DAPI inhibition assay, Mate3. The settings on record: Mate3; inhibition of DAPI (2.5 μM) uptake; n = 3; NE = no effect in the compound solubility range; read-out: IC50. The data set is classed as cell-based. Details: expressed in transfected cells; host or cells: HEK293T. The procedure:
as §1, §2, §3, §4

The target in data set [7] is T1, zebrafish Mate4. Kind of data set: Uptake of fluorescent dyes by HEK293T cells overexpressing zebrafish Mate4. The settings on record: dye uptake, mean ± SD, NT = no transport found. As for the experimental part: as §1, §5, §6
(§7) All assays were performed in 3–5 independent experiments run in triplicates. Data shown on related figures represent mean ± standard errors (SE) or standard deviations (SD). All calculations were performed using GraphPad Prism 5.00 for Windows (GraphPad Software, San Diego, California, USA) as described below. The kinetic parameters, Km and Vmax values were calculated using the Michaelis-Menten equation, […]

The target in data set [8] is T2, zebrafish Mate6. Put plainly: Uptake of fluorescent dyes by HEK293T cells overexpressing zebrafish Mate6. The following applies: dye uptake, mean ± SD. The procedure: as §1, §5, §6, §7
For data set [9], the target named is T3, zebrafish Mate7. Kind of data set: Uptake of fluorescent dyes by HEK293T cells overexpressing zebrafish Mate7. The following applies: dye uptake, mean ± SD. The procedure:
as §1, §5, §6, §7

Data set [10] concerns the target T4, zebrafish Mate8. Put plainly: Uptake of fluorescent dyes by HEK293T cells overexpressing zebrafish Mate8. The settings on record: dye uptake, mean ± SD, NT = no transport found. The procedure: as §1, §5, §6, §7

Read-outs that look alike come from different tables or passages of the source.

T1 sequence (U3Q0C3 entry or part of it): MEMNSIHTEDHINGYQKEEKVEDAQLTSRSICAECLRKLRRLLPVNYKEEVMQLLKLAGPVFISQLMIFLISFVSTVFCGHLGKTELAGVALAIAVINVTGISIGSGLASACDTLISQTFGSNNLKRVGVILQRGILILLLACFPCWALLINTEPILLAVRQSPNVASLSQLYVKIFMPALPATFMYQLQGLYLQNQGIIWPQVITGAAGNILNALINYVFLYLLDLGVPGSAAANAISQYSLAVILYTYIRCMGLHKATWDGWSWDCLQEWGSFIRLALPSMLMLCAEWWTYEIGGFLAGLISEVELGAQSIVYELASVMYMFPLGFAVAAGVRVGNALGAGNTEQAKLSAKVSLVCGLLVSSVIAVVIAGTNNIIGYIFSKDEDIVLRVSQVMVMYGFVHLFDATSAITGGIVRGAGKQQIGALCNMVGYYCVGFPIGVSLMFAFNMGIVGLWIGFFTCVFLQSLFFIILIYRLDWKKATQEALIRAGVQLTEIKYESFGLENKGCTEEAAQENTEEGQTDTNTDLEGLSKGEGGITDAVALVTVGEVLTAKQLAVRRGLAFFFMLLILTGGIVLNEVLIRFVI
T3 sequence (U3PTD6 entry or part of it): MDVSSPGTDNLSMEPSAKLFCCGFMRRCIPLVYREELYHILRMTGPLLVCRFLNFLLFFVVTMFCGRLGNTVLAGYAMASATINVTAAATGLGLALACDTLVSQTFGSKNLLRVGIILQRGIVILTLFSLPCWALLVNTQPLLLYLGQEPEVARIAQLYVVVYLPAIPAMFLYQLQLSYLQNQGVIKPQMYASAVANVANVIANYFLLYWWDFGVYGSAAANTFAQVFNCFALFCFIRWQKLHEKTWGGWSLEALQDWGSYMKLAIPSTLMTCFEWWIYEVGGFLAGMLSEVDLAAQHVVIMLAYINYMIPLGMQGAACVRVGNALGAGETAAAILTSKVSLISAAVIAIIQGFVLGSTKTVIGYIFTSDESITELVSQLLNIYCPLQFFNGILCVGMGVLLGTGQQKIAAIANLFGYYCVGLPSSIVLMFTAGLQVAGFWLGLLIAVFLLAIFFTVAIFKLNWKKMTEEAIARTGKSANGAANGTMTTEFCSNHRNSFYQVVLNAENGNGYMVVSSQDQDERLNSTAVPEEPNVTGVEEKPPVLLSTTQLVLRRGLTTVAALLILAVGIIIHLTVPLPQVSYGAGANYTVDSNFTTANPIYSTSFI
T4 sequence (A0A8M6YZ09 entry or part of it): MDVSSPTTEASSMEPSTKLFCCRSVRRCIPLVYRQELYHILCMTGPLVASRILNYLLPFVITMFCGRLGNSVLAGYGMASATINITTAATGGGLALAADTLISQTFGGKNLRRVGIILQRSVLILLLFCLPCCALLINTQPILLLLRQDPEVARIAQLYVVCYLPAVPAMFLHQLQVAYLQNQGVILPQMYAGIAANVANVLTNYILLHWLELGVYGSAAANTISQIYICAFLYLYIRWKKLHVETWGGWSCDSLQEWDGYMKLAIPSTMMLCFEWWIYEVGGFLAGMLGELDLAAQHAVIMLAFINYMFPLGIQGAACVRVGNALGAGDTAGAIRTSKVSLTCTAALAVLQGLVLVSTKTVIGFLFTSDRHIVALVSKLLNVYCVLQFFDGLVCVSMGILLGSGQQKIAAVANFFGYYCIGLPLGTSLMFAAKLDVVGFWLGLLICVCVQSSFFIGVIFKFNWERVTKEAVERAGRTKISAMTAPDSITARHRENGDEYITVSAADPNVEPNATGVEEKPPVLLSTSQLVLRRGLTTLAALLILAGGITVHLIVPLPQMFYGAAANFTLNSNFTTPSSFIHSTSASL
T2 sequence (A1L2E7 entry or part of it): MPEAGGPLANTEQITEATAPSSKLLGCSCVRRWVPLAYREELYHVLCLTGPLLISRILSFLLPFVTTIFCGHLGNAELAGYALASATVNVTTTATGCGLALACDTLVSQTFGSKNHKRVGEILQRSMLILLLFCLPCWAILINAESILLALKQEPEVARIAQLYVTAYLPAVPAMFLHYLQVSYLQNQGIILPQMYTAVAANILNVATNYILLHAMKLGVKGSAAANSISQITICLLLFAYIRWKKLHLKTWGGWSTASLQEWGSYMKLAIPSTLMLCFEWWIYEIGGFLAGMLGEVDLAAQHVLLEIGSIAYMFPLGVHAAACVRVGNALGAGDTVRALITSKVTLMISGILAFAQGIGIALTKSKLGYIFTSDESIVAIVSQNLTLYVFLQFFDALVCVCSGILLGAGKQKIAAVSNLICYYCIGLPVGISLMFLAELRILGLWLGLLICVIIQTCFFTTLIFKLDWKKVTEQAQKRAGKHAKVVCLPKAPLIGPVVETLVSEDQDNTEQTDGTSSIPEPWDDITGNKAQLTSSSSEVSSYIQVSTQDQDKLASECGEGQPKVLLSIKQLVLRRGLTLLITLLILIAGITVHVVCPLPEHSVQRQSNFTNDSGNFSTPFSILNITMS

In the case of `Cc1ncc(C[n+]2csc(CCO)c2C)c(N)n1` [Thiamine, thiamine], the IC50 on zebrafish Mate4 [1] (read-out: IC50) was determined as 805 µM; at zebrafish Mate6 [2] (read-out: IC50) it was 724 µM; at zebrafish Mate7 [3] (read-out: IC50) it was 935 µM; at zebrafish Mate8 [4] (read-out: IC50) it was 1900 µM. Further, the interaction strength entry on zebrafish Mate7 [3] (Mate7) was “weak (IC50 of 100–999 μM was classified as weak interaction)”; on zebrafish Mate8 [4] (Mate8), “very weak (substances with IC50 above 1000 μM were considered very weak interactors)”. Further, the Km is 3.5 µM in the data set on human MATE1 (human MATE1 ref 40) and 3.9 µM in the data set on human MATE2.
On to `CC[n+]1c(-c2ccccc2)c2cc(N)ccc2c2ccc(N)cc21` [EtBr, ethidium bromide], for which, on zebrafish Mate3 [5], the vmax is given as 825 ± 25.5 pmol/mg protein/min and the Km is 5.56 ± 0.5 µM.
Regarding `CN/C(=N/CCSCc1nc[nH]c1C)NC#N` [Cimetidine, cimetidine, reference compound], the IC50 against zebrafish Mate4 [1] turned out to be 134 µM; on zebrafish Mate6 [2], 357 µM; on zebrafish Mate7 [3], 573 µM; against zebrafish Mate8 [4], 4.5 µM. The interaction strength entry was “weak (IC50 of 100–999 μM was classified as weak interaction)” on zebrafish Mate7 [3] (Mate7) and “strong (Compounds with IC50 of 1–29 μM were designated as strong interactors)” on zebrafish Mate8 [4] (Mate8). Further, in the data set with rat Mate1, the Km is 3 µM.
`C[n+]1ccc(-c2ccccc2)cc1` [MPP^+, 1-methyl-4-phenylpyridinium, reference compound]: the IC50 at zebrafish Mate4 [1] (Mate4, inhibition of DAPI (1 μM) uptake, n = 3, NE = no effect in the compound solubility range, read-out: IC50) was found to be 434 µM; at zebrafish Mate6 [2] (Mate6, inhibition of DAPI (1 μM) uptake, n = 3, NE = no effect in the compound solubility range, read-out: IC50), 27.9 µM; on zebrafish Mate7 [3] (Mate7, inhibition of DAPI (2.5 μM) uptake, n = 3, NE = no effect in the compound solubility range, read-out: IC50) it was 93.6 µM; at zebrafish Mate8 [4] (Mate8, inhibition of DAPI (1 μM) uptake, n = 3, NE = no effect in the compound solubility range, read-out: IC50), 978 µM; at zebrafish Mate3 [6] it was 2430 µM. Moreover, the interaction strength result on zebrafish Mate8 [4] (Mate8) is given as “weak (IC50 of 100–999 μM was classified as weak interaction)”. Also, in the data set on human MATE1 (human MATE1 ref 18), the Km is 100 µM.
Take `N=C(N)c1ccc(-c2cc3ccc(C(=N)N)cc3[nH]2)cc1` [DAPI, 4′,6-diamidino-2-phenylindole]: the vmax was 436 ± 21.8 pmol/mg protein/min on zebrafish Mate3 [5]; 47.7 ± 2.27 pmol/mg protein/min on zebrafish Mate4 [7]; 44.3 ± 1.80 pmol/mg protein/min at zebrafish Mate6 [8]; 193 ± 9.15 pmol/mg protein/min at zebrafish Mate7 [9]; 24.4 ± 0.70 pmol/mg protein/min on zebrafish Mate8 [10]. For the same molecule, the Km stood at 2.83 ± 0.34 µM on zebrafish Mate3 [5]; 0.29 ± 0.04 µM at zebrafish Mate4 [7]; 0.26 ± 0.05 µM on zebrafish Mate6 [8]; 1.44 ± 0.19 µM on zebrafish Mate7 [9]; 0.55 ± 0.07 µM at zebrafish Mate8 [10].
Regarding `COC(=O)c1ccccc1-c1c2ccc(=N)cc-2oc2cc(N)ccc12` [Rh123, rhodamine 123], the vmax on zebrafish Mate3 [5] stood at 105 ± 5.16 pmol/mg protein/min; on zebrafish Mate4 [7], 1.03 ± 0.03 pmol/mg protein/min; at zebrafish Mate6 [8] it was 55.6 ± 1.48 pmol/mg protein/min; on zebrafish Mate7 [9], 4.79 ± 0.17 pmol/mg protein/min; at zebrafish Mate8 [10] it was 12.3 ± 0.61 pmol/mg protein/min.
